In patent US7994127B2, “Treatment of rett syndrome” (Massachusetts Institute of Technology, priority 2007, dated 2011):
Entries after “also recorded” stand apart in the source; their conditions may differ.

How the values were obtained:
[1] = test system: synaptic transmission; assay: Synaptic transmission during direct application of the molecules; format: cell-based, mouse; conditions: direct application of the molecule
Text: rhIGF1 produced a similar improvement as (1-3)IGF-1 in all maturational signatures measured, including (A) synaptic transmission levels, and (B) circuit stability (by preventing ocular dominance plasticity) in P60 MeCP2 KO mice.
The above data focused on the (1-3)IGF-1 fragment of IGF1 to promote IGF1 signaling. We also have tested the effect of the full-length IGF1 peptide already approved for pediatric administration in human patients (for short stature indications). We have verified a correspondence in the effects of (1-3)IGF-1 and recombinant human IGF1 (rhIGF1).

[2] = test system: tPA; assay: tPA expression (mRNA, tPA staining) during monocular deprivation; format: in vivo, mouse; conditions: mice subjected to MD and treated
Protocol: (§1) A: Effects of (1-3)IGF-1 (GPE) treatment on the expression levels of BDNF at mRNA level. […] (1-3)IGF-1 treatment is able to increase expression though not to control levels. The RNA levels were obtained with the micro-array analysis described in Tropea et al., 2006. B: Double staining for NeuN (green) and proBDNF (red) antibody. […] Anti-pro BDNF and anti-NeuN were obtained from CHEMICON and used at a concentration of 1:500. The solutions and time of incubations are the following: preincubation in 5% BSA, 0.1% triton, 10% serum, PBS. Incubation with the primary antibodies was carried out at 4 degrees for 3 days in the following solution: 2% BSA, 5% serum, 0.1% triton, PBS. After washings in PBS secondary biotinylated (for pro-BDNF) or Alexa conjugated (for NeuN) antibodies (1:200) were incubated for 2 hours in the same solution of the primary antibodies. The pro-BDNF labeling was detected by adding extravidine tritc (Sigma—1:300). C: Effects of (1-3)IGF-1 (GPE) treatment on the mRNA expression levels of tPA. […] Anti-tPA was purchased from Oxford Biomedical Research and used at a concentration of 1:500. The conditions for incubation were the following: free floating sections were pre-incubated in blocking solution: 10% serum, 0.3% triton, PBS and then left overnight in the primary antibody mix: 1% serum, 0.3% triton, PBS, anti-tPA 1:500, anti Neu-N 1:500. […]

[3] = test system: BDNF; assay: BDNF expression (mRNA micro-array, proBDNF staining) in V1 during monocular deprivation; format: in vivo, mouse; conditions: mice subjected to MD and treated; vs MD and control
Protocol: as §1

[4] = Overall brain weight; format: in vivo, mouse; conditions: as a result of knockout and treatment (Discussion)
[5] = test system: MeCP2−/y mice; assay: Heart rate measurements (real time cardiac pulse rate, tail clip sensor); format: in vivo, mouse; conditions: 8 week old MeCP2−/y mice, treated from P15 (6 weeks), non-anesthetized

Structure (SMILES): NCC(=O)N1CCC[C@H]1C(=O)N[C@@H](CCC(=O)O)C(=O)O [(1-3)IGF-1, glycyl-L-prolyl-L-glutamic acid]
- synaptic activity / synaptic transmission levels (FIG. 9A) [1]: striking enhancements of synaptic activity
- tPA protein expression level, tPA staining (FIG. 8D) [2]: strongly increased
- tPA mRNA expression (FIG. 8C) ([2]; vs control and deprived animals): significantly up-regulated tPA mRNA expression relative to both control and deprived animals
- BDNF mRNA expression level in contralateral V1 (FIG. 8A) [3]: increase expression in animals subjected to MD, though not to control levels
- BDNF protein expression, proBDNF staining (FIG. 8B) [3]: increasing BDNF protein expression, though not to control levels
- overall brain weight [4]: small changes were seen
- heart rate distribution / occurrence of irregular, lower heart rate (bradycardia, FIG. 4A) [5]: significantly reduced; also recorded: partial rescue of the KO phenotype
